We go through two molecules from patent publication US8252723B2, “Substituted 1-(3-pyridinyl)pyrazol-4-ylacetic acids, processes for their preparation and their use as herbicides and plant growth regulators” (Bayer CropScience AG, priority 2006, dated 2012).

For data set [1], the system named is weed plants such as Lolium multiflorum, Amaranthus retroflexus, Sinapis alba, Stellaria media and Setaria viridis. Put plainly: Post-emergence effect on weeds (greenhouse pot test, visual scoring). The following applies: application rate of 500 g or less of active substance per hectare, visual scoring after about 3 to 4 weeks vs untreated controls, read-out: herbicidal action (control). It counts as in vivo.

In data set [2] the test system is summer wheat of the cultivar 'Triso'. Put plainly: Plant growth regulation test: culm stabilization of crop plants. Particulars: application rate of 30 to 300 g of active substance per hectare, treated at stage BBCH 31, culm length measured after ears had formed. It counts as in vivo. The procedure, abridged: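 Wettable-powder formulation with adjuvant (1 l/ha) sprayed at 300 l water/ha onto pot-grown plants at BBCH 31, then kept outdoors. After ear formation culm length was measured; culm stabilization is expressed as percent of untreated control.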

In data set [3] the test system is weed plants such as Lolium multiflorum, Amaranthus retroflexus, Sinapis alba, Stellaria media and Setaria viridis. As to the kind of experiment: Pre-emergence effect on weeds (greenhouse pot test, visual scoring). Particulars: pre-emergence method, application rate of 1 kg or less of active substance per hectare, visual scoring after 3 to 4 weeks vs untreated controls; read-out: herbicidal action (control). It counts as in vivo. The text has this:
Seeds or sections of rhizome from monocotyledonous and dicotyledonous weed plants were laid out in sandy loam soil in plastic pots, and covered with soil. The compounds according to the invention, formulated as wettable powders or emulsifiable concentrates, were then applied, in the form of aqueous suspensions or emulsions, at various dosages, onto the surface of the covering soil, at an application rate of 600 to 800 l of water/ha (converted).

One may read the melting point as the temperature of the solid-liquid transition.

`O=C(O)Cc1c(-c2ccccc2)nn(-c2cccnc2)c1-c1ccccc1` [Example 1-1, 3,5-diphenyl-1-(3-pyridyl)pyrazole-4-acetic acid] returned a melting point of 172 °C. Further, the pest or weed control at up to 500 g/ha in data set [1] was at least 70%. Moreover, the “longitudinal growth (culm length) of summer wheat” value in data set [2] was “effectively shortened”. In addition, the pest or weed control at up to 1000 g/ha in data set [3] was at least 70%.

`Cc1nn(-c2cccnc2)c(-c2ccccc2)c1CC(=O)O` [Example 1-2, 3-methyl-5-phenyl-1-(3-pyridyl)pyrazole-4-acetic acid] had a melting point of 192 °C. In addition, the pest or weed control at up to 500 g/ha in data set [1] is at least 70%. The “longitudinal growth (culm length) of summer wheat” value in data set [2] is listed as “effectively shortened”. Further, the pest or weed control at up to 1000 g/ha in data set [3] is at least 70%.
